# In patent US20070155730A1, “Benzodiazepine And Benzopiperazine Analog Inhibitors Of Histone Deacetylase” (METHYLGENE, INC., priority 2005, published 2007):
# Biological target: histone deacetylase (HDAC)
# Assay: Inhibition of Histone Deacetylase Enzymatic Activity
# Assay type: biochemical
# Conditions: substrate Boc-Lys(Ac)-AMC, Fluor-de-Lys developer, 37° C., 20 min; against one or more of HDAC-1 to HDAC-11, SirT1 to SirT7 (isoform not given); read-out: HDAC Inhibitory Activity (IC50)
# Protocol: The following protocol is used to assay the compounds of the invention. In the assay, the buffer used is 25 mM HEPES, pH 8.0, 137 mM NaCl, 2.7 mM KCl, 1 mM MgCl2 and the substrate is Boc-Lys(Ac)-AMC in a 50 mM stock solution in DMSO. The enzyme stock solution is 4.08 μg/mL in buffer.
# The compounds are pre-incubated (2 μl in DMSO diluted to 13 μl in buffer for transfer to assay plate) with enzyme (20 μl of 4.08 μg/mL) for 10 min at room temperature (35 μl pre-incubation volume). The mixture is pre-incubated for 5 min at room temperature. The reaction is started by bringing the temperature to 37° C. and adding 16 μl substrate. Total reaction volume is 50 μl. […] A plate is incubated in the dark for 10 min at room temperature before reading (λEX=360 nm, λEm=470 nm, Cutoff filter at 435 nm).
# In the table, “A” indicates inhibitory activity at a concentration of <0.05 μM; “B” indicates inhibitory activity at a concentration >0.05 μM but <0.5 μM, “C” indicates inhibitory activity at >0.5 μM but <2 μM and “D” indicates inhibitory activity at a concentration of >2 μM but <10 μM.
row,IC50,SMILES
1,0.05 to 0.5 µM,"O=C(/C=C/c1ccc2c(c1)NC(=O)[C@@H](Cc1c[nH]c3ccccc13)N2)NO [Compound 66f, (E)-3-((R)-2-((1H-indol-3-yl)methyl)-1,2,3,4-tetrahydro-3-oxoquinoxalin-6-yl)-N-hydroxyacrylamide]"
2,2 to 10 µM,"CC(C)[C@H]1C(=O)Nc2cc(C(=O)NO)ccc2N1Cc1ccc(C(=O)O)cc1 [Compound 16d, 4-(((S)-7-(hydroxycarbamoyl)-2,3-dihydro-3-isopropyl-2-oxoquinoxalin-4(1H)-yl)methyl)benzoic acid]"
3,0.05 to 0.5 µM,"O=C(NO)c1ccc(O[C@H]2C[C@@H](C(=O)Nc3cccc4cccnc34)N(C(=O)OCc3ccccc3)C2)cc1 [Compound 109a, (2S,4S)-Benzyl 4-(4-(hydroxycarbamoyl)phenoxy)-2-(quinolin-8-ylcarbamoyl)pyrrolidine-1-carboxylate]"
4,0.5 to 2 µM,"O=C(CCCCCN1C(=O)[C@H](C2CCCCC2)NC(=O)c2ccccc21)NO [Compound 68b19, 6-((S)-3-Cyclohexyl-2,3,4,5-tetrahydro-2,5-dioxobenzo[e][1,4]diazepin-1-yl)-N-hydroxyhexanamide]"
5,0.5 to 2 µM,"CC(C)C[C@@H]1NC(=O)c2ccccc2N(CCCCCC(=O)NO)C1=O [Compound 68b1, 6-((S)-2,3,4,5-tetrahydro-3-isobutyl-2,5-dioxobenzo[e][1,4]diazepin-1-yl)-N-hydroxyhexanamide]"
6,0.5 to 2 µM,"COc1ccc(CN2C(=O)C(CCCCCC(=O)NO)NC(=O)c3ccccc32)cc1 (stereo not shown) [Compound 82, 6-(1-(4-Methoxybenzyl)-2,3,4,5-tetrahydro-2,5-dioxo-1H-benzo[e][1,4]diazepin-3-yl)-N-hydroxyhexanamide]"
7,0.05 to 0.5 µM,"O=C(CCCCCC1NC(=O)c2ccccc2NC1=O)NO (stereo not shown) [Compound 74, 6-(2,3,4,5-Tetrahydro-2,5-dioxo-1H-benzo[e][1,4]diazepin-3-yl)-N-hydroxyhexanamide]"
8,< 0.05 µM,"O=C(NO)c1ccc(CN2C(=O)CNC(=O)[C@H]2Cc2ccccc2)cc1 [Compound 136b, (R)-4-((2-Benzyl-3,6-dioxopiperazin-1-yl)methyl)-N-hydroxybenzamide]"
9,2 to 10 µM,"COc1ccc(CN2c3ccccc3NC(=O)C2CCCCCC(=O)Nc2ccccc2N)cc1 (stereo not shown) [Compound 47b, 6-(1-(4-methoxybenzyl)-1,2,3,4-tetrahydro-3-oxoquinoxalin-2-yl)-N-(2-aminophenyl)hexanamide]"
10,0.5 to 2 µM,"O=C(CCCCCC1NC(=O)c2ccccc2N(CCc2ccccc2)C1=O)NO (stereo not shown) [Compound 83, 6-(2,3,4,5-tetrahydro-2,5-dioxo-1-phenethyl-1H-benzo[e][1 ,4]diazepin-3-yl)-N-hydroxyhexanamide]"
11,2 to 10 µM,"Nc1ccccc1NC(=O)c1ccc2c(c1)NC(=O)[C@H](Cc1c[nH]c3ccccc13)N2 [Compound 5c, (S)-2-((1H-indol-3-yl)methyl)-N-(2-aminophenyl)-1,2,3,4-tetrahydro-3-oxoquinoxaline-6-carboxamide]"
12,2 to 10 µM,"CC(C)[C@@H]1Nc2ccc(NC(=O)CCCCCCC(=O)Nc3ccccc3N)cc2NC1=O [Compound 23a, N1-(2-Aminophenyl)-N8—((S)-1,2,3,4-tetrahydro-2-isopropyl-3-oxoquinoxalin-6-yl)octanediamide]"
13,2 to 10 µM,"CC(C)[C@@H]1Nc2ccc(C(=O)NO)cc2NC1=O [Compound 4a, (S)-1,2,3,4-Tetrahydro-N-hydroxy-2-isopropyl-3-oxoquinoxaline-6-carboxamide]"
14,0.5 to 2 µM,CC(C)[C@H]1C(=O)Nc2cc(C(=O)NO)ccc2N1S(=O)(=O)c1cccc2ccccc12 [Compound 18f]
15,0.5 to 2 µM,"O=C(CCO[C@@H]1C[C@@H](C(=O)Nc2cccc3cccnc23)N(C(=O)OCc2ccccc2)C1)NO [Compound 112a, (2S,4R)-benzyl 4-(3-(hydroxyamino)-3-oxopropoxy)-2-(quinolin-8-ylcarbamoyl)pyrrolidine-1-carboxylate]"
16,0.05 to 0.5 µM,"CC(C)(C)C[C@@H]1NC(=O)c2ccccc2N(CCCCCC(=O)NO)C1=O [Compound 68b3, 6-((S)-2,3,4,5-tetrahydro-3-neopentyl-2,5-dioxobenzo[e][1,4]diazepin-1-yl)-N-hydroxyhexanamide]"
17,0.05 to 0.5 µM,"O=C(NO)c1ccc(O[C@@H]2C[C@@H](C(=O)Nc3cccc4cccnc34)N(C(=O)OCc3ccccc3)C2)cc1 [Compound 109b, (2S,4R)- Benzyl 4-(4-(hydroxycarbamoyl)phenoxy)-2-(quinolin-8-ylcarbamoyl) pyrrolidine-1-carboxylate]"

row,IC50,SMILES
1,< 0.05 µM,"CC(C)(C)OC(=O)CC[C@@H]1C(=O)Nc2ccccc2N1Cc1ccc(C(=O)NO)cc1 [Compound 54b12, (R)-tert-butyl 3-(1-(4-(hydroxycarbamoyl)benzyl)-3-oxo-1,2,3,4-tetrahydroquinoxalin-2-yl)propanoate]"
2,2 to 10 µM,"CC(C)[C@H]1Nc2ccc(C(=O)NO)cc2NC1=O [Compound 4e, (R)-1,2,3,4-tetrahydro-N-hydroxy-2-isopropyl-3-oxoquinoxaline-6-carboxamide]"
3,0.05 to 0.5 µM,"CC(C)[C@H]1C(=O)Nc2cc(C(=O)NO)ccc2N1Cc1ccc(C(=N)NO)cc1 [Compound 16f, (S)—N-hydroxy-1-(4-(N-hydroxycarbamimidoyl)benzyl)-2-isopropyl-3-oxo-1,2,3,4-tetrahydroquinoxaline-6-carboxamide]"
4,0.5 to 2 µM,"CC(C)[C@H]1C(=O)Nc2cc(C(=O)NO)ccc2N1Cc1ccc(O)cc1 [Compound 16b, (S)-1-(4-hydroxybenzyl)-1,2,3,4-tetrahydro-N-hydroxy-2-isopropyl-3-oxoquinoxaline-6-carboxamide]"
5,< 0.05 µM,"O=C(CCCCCCC(=O)Nc1ccc2c(c1)NC(=O)[C@@H](Cc1c[nH]c3ccccc13)N2)NO [Compound 24f, N1—((R)-2-((1H-Indol-3-yl)methyl)-1,2,3,4-tetrahydro-3-oxoquinoxalin-6-yl)-N8-hydroxyoctanediamide]"
6,0.5 to 2 µM,"O=C(CO[C@@H]1CC(C(=O)Nc2cccc3cccnc23)N(C(=O)OCc2ccccc2)C1)NO (stereo partly drawn) [Compound 112b, (2S,4R)-benzyl 4-(2-(hydroxyamino)-2-oxoethoxy)-2-(quinolin-8-ylcarbainoyl) pyrrolidine-1-carboxylate]"
7,0.05 to 0.5 µM,"CC(C)(C)C[C@H]1NC(=O)c2ccccc2N(CCCCCC(=O)NO)C1=O [Compound 68b18, 6-((R)-2,3,4,5-Tetrahydro-3-neopentyl-2,5-dioxobenzo[e][1,4]diazepin-1-yl)-N-hydroxyhexanamide]"
8,< 0.05 µM,"O=C(NO)c1ccc(CN2c3ccccc3NC(=O)[C@H]2Cc2csc3ccccc23)cc1 [Compound 54b13, (R)-4-((2-(benzo[b]thiophen-3-ylmethyl)-3-oxo-3,4-dihydroquinoxalin-1(2H)-yl)methyl)-N-hydroxybenzamide]"
9,2 to 10 µM,"CC(C)[C@H]1NC(=O)c2ccc(C(=O)NO)cc2NC1=O [Compound 97a, (R)—N-Hydroxy-3-isopropyl-2,5-dioxo-2,3,4,5-tetrahydro-1H-benzo[e][1,4]diazepine-8-carboxamide]"
10,0.05 to 0.5 µM,"O=C(CCOC1C[C@@H](C(=O)Nc2cccc3cccnc23)N(C(=O)OCc2ccccc2)C1)NO (stereo in doubt) [Compound 112d, (2S,4S)-benzyl 4-(3-(hydroxyamino)-3-oxopropoxy)-2-(quinolin-8-ylcarbamoyl) pyrrolidine-1-carboxylate]"
11,0.5 to 2 µM,"O=C(CCO[C@@H]1C[C@H](C(=O)Nc2cccc3cccnc23)N(C(=O)OCc2ccccc2)C1)NO [Compound 112c, (2R,4R)-benzyl 4-(3-(hydroxyamino)-3-oxopropoxy)-2-(quinolin-8-ylcarbamoyl) pyrrolidine-1-carboxylate]"
12,0.5 to 2 µM,"CC(C)[C@H]1C(=O)Nc2cc(C(=O)NO)ccc2N1S(=O)(=O)c1ccc(-c2ccccc2)cc1 [Compound 18b, (S)—N-hydroxy-1-(biphenyl-4-sulfonyl)-2-isopropyl-3-oxo-1,2,3,4-tetrahydroquinoxaline-6-carboxamide]"
13,0.05 to 0.5 µM,"O=C(CCCCCC1NC(=O)c2ccccc2N(Cc2ccccc2)C1=O)NO (stereo not shown) [Compound 80, 6-(1-Benzyl-2,3,4,5-tetrahydro-2,5-dioxo-1H-benzo[e][1,4]diazepin-3-yl)-N-hydroxyhexanamide]"
14,0.05 to 0.5 µM,"O=C(NO)c1ccc(O[C@H]2C[C@H](C(=O)Nc3cccc4cccnc34)N(C(=O)OCc3ccccc3)C2)cc1 [Compound 109c, (2R,4S)- Benzyl 4-(4-(hydroxycarbamoyl)phenoxy)-2-(quinolin-8-ylcarbainoyl) pyrrolidine-1-carboxylate]"
15,0.5 to 2 µM,"O=C(CCc1ccc2c(c1)NC(=O)[C@H](Cc1c[nH]c3ccccc13)N2)NO [Compound 69, 3-((S)-2-((1H-indol-3-yl)methyl)-1,2,3,4-tetrahydro-3-oxoquinoxalin-6-yl)-N-hydroxypropanamide]"
16,0.05 to 0.5 µM,"O=C(NO)c1ccc(CN2c3ccccc3NC(=O)[C@H]2CC2CCCCC2)cc1 [Compound 54b8, (R)-4-((2-(cyclohexylmethyl)-3-oxo-3,4-dihydroquinoxalin-1(2H)-yl)methyl)-N-hydroxybenzamide]"

row,SMILES,IC50
1,"O=C(NO)c1ccc(CN2c3ccccc3NC(=O)[C@H]2Cc2ccccc2)cc1 [Compound 54b5, (R)-4-((2-benzyl-3-oxo-3,4-dihydroquinoxalin-1(2H)-yl)methyl)-N-hydroxybenzamide]",< 0.05 µM
